Measurements: patent US8580814B2, “Methods of using (+)-1,4-dihydro-7-[(3S,4S)-3-methoxy-4-(methylamino)-1-pyrrolidinyl]-4- oxo-1-(2-thiazolyl)-1,8-naphthyridine-3-carboxylic acid for treatment of cancer” (priority 2006, dated 2013)
Marks after values point to notes of the source that are not given here.

What was measured:
clinical = conditions: human, in vivo
Method: (§1) SNS-595 was administered to patients with advanced solid cancers as an IV infusion over 10 minutes on 2 schedules. In the first schedule (A), a weekly dose of SNS-595 was administered for three weeks followed by at least 7 days off (qwk×3). In the second schedule (B), a dose of SNS-595 was administered once every three weeks (q3wk).
(§2) In both schedules, the starting dose of SNS-595 was 3 mg/m^2, and doses were escalated by sequential cohorts of 3. The doses were doubled until the first related adverse event at or above Grade 2 or until the first abnormal lab value. The doses were then escalated by a modified Fibonacci schema.
For patients dosed according to schedule A, PK samples were collected on treatment Days 1 and 15 and were assayed using noncompartmental analysis. Plasma SNS-595 concentrations were determined using a validated LC-MS/MS assay. […] FIG. 1 depicts the plasma concentrations of SNS-595 over time among the various patient cohorts.
For patients dosed according to schedule B, pharmacokinetic parameters were evaluated in 36 patients (21 heavily pretreated and 15 minimally pretreated) after a single dose of 3 to 75 mg/m^2.
In study A, pharmacokinetics were assessed on Days 1 and 15 (after the first and third doses).

[1] = Safety (adverse events, hematologic effects, DLT, MTD) in patients with advanced solid tumors; format: in vivo
Method: as §1, §2
In the description herein, the term “maximum tolerated dose” or “MTD” refers to the dose level below a dose of SNS-595 where ≧2 of 6 patients experienced dose limiting toxicity (DLT). The term, “heavily pretreated” or “HP” patient refers to a patient who has previously received >6 courses of an alkylating agent, chemotherapy or >2 courses of platinum, mitomycin-C or any nitrosourea, or XRT to >25% of bone. […] (See, Tolcher et al, JCO 2001; 19:2937-2947).
As used herein, dose limiting toxicity (DLT) refers to absolute neutrophil count (ANC) ≦500 for ≧7 days or febrile neutropenia or platelet nadir <25000 or bleeding or non-hematologic adverse events (AE) ≧Grade 3 (as described in Common Terminology Criteria for Adverse Events Version 3.0 (CTCAE v3.0)), wherein adverse events required >14 days dose delay.

p73 null cells = experiment: SNS-595 sensitivity in p73 null vs p73 containing cells; format: cell-based; conditions: p73 null cells as compared to p73 containing cells
HCT116 cells = experiment: High content screening and microscopy, nuclear foci (gH2AX, pATM); format: cell-based; conditions: HCT116 cells dosed for 6 hour
Method: Cells were plated as sub-confluent populations and allowed to grow for 36 hours. Cells were then treated with the compound at the given concentration for the given time period. Cells were fixed using 4% formaldehyde and permeabilized with 0.1% triton. Cells were exposed to primary antibodies for 1 hour at 25° C. at a 1:100 dilution in 10% FBS/PBS (anti-pATM—Chemicon, anti-gH2AX-Cell Signaling Technology). Cells were exposed to secondary antibodies for 1 hour at 25° C. at a 1:100 dilution in 10% FBS/PBS. Hoechst staining was carried out in 10% FBS/PBS at 500 ng/ml concentrations. High content screening was carried out on a Cellomics Arrayscan instrument using the Spot Detector algorithm. […] Cells were then fixed and analyzed for protein phosphorylation state (gH2AX images obtained using a fluorescence microscope, pATM images obtained with the ArrayScan VTi).

CN[C@H]1CN(c2ccc3c(=O)c(C(=O)O)cn(-c4nccs4)c3n2)C[C@@H]1OC [SNS-595, (+)-1,4-dihydro-7-[(3S,4S)-3-methoxy-4-(methylamino)-1-pyrrolidinyl]-4-oxo-1-(2-thiazolyl)-1,8-naphthyridine-3-carboxylic acid]
AUC (area under curve) versus dose (clinical): increased proportionally with dose | CL, averaged (clinical): 2 L/hr/m^2 | CL, volume of distribution and T1/2 across doses (clinical): remained unchanged | Clearance (CL) (clinical): 2.2 L/hr/m2 | Clearance (CL), range (clinical): 1.0-3.8 L/hr/m^2 | Exposure (clinical): 1600 to 15000 ng·h/mL | T ½, Average (clinical): 21.3 ± 5.3 h | T ½, Range (clinical): 13 to 56 h | Vss, averaged (clinical): 53 L/m^2 | clearance (CL), averaged (clinical): 2 L/hr/m^2 | drug dependent alterations in pharmacokinetic parameters (clinical): No evidence of drug dependent alterations | exposure (clinical): 1100 to 46000 ng·h/mL | volume of distribution (Vss), averaged (clinical): 48 L/m^2 | AUCinf (clinical; 3 mg/m2): 1140 ± 260 ng·h/mL | T ½ (clinical; 3 mg/m2): 16.4 ± 4.8 h | AUC(0-inf) (clinical; 3 mg/m2, AUCinf): 1710 ± 200 ng·h/mL | half-life (clinical; 3 mg/m2, T ½): 23.3 ± 7.2 h | AUCinf (clinical; 6 mg/m2): 3040 ± 320 ng·h/mL | Cmax (clinical; 6 mg/m2): 347 ± 220 ng/mL | T ½ (clinical; 6 mg/m2): 22.2 ± 1.9 h | AUC(0-inf) (clinical; 6 mg/m2, AUCinf): 2090 ± 530 ng·h/mL | Cmax (clinical; 6 mg/m2, Cmax): 531 ± 280 ng/mL | half-life (clinical; 6 mg/m2, T ½): 13.5 ± 2.2 h | AUCinf (clinical; 12 mg/m2): 6320 ± 220 ng·h/mL | Cmax (clinical; 12 mg/m2): 2250 ± 1070 ng/mL | T ½ (clinical; 12 mg/m2): 18.0 ± 4.1 h | AUC(0-inf) (clinical; 12 mg/m2, AUCinf): 6810 ± 1680 ng·h/mL | Cmax (clinical; 12 mg/m2, Cmax): 1840 ± 2700 ng/mL | half-life (clinical; 12 mg/m2, T ½): 19.9 ± 5.3 h | T ½ (clinical; 15 mg/m2): 26.4 ± 15.2 h | Vssobs (clinical; 15 mg/m2): 43.8 ± 7.90 L/m^2 | AUC(0-inf) (clinical; 15 mg/m2, AUCinf): 10800 ± 4700 ng·h/mL | Cmax (clinical; 15 mg/m2, Cmax): 865 ± 318 ng/mL | Vssobs (clinical; 18 mg/m2): 47.19 ± 8.06 L/m^2 | AUC(0-inf) (clinical; 18 mg/m2, AUCinf): 8500 ± 2860 ng·h/mL | Cmax (clinical; 18 mg/m2, Cmax): 1690 ± 830 ng/mL | half-life (clinical; 18 mg/m2, T ½): 15.8 ± 4.2 h | AUCinf (clinical; 24 mg/m2): 12630 ± 860 ng·h/mL | T ½ (clinical; 24 mg/m2): 15.7 ± 3.2 h | AUC(0-inf) (clinical; 24 mg/m2, AUCinf): 15200 ng·h/mL | half-life (clinical; 24 mg/m2, T ½): 24.2 h | T ½ (clinical; 36 mg/m2): 22.5 ± 4.2 h | Vssobs (clinical; 36 mg/m2): 61.4 ± 12.8 L/m^2 | AUC(0-inf) (clinical; 36 mg/m2, AUCinf): 18000 ± 730 ng·h/mL | Cmax (clinical; 36 mg/m2, Cmax): 3380 ± 1920 ng/mL | T ½ (clinical; 48 mg/m2): 26.4 ± 13.1 h | Vssobs (clinical; 48 mg/m2): 58.8 ± 14.5 L/m^2 | AUC(0-inf) (clinical; 48 mg/m2, AUCinf): 29400 ± 11300 ng·h/mL | Cmax (clinical; 48 mg/m2, Cmax): 3080 ± 1920 ng/mL | T ½ (clinical; 60 mg/m2): 25.0 ± 17.9 h | Vssobs (clinical; 60 mg/m2): 48.0 ± 7.3 L/m^2 | AUC(0-inf) (clinical; 60 mg/m2, AUCinf): 40700 ± 23700 ng·h/mL | Cmax (clinical; 60 mg/m2, Cmax): 3860 ± 1680 ng/mL | T ½ (clinical; 75 mg/m2): 25.0 ± 4.9 h | Vssobs (clinical; 75 mg/m2): 56.3 ± 9.4 L/m^2 | AUC(0-inf) (clinical; 75 mg/m2, AUCinf): 46100 ± 6120 ng·h/mL | Cmax (clinical; 75 mg/m2, Cmax): 5050 ± 1720 ng/mL | half-life (clinical; T1/2, averaged): 19 h | half-life (clinical; T1/2 ± SD): 22 ± 11 h | half-life (clinical; T ½, Average): 18.5 ± 4.6 h | half-life (clinical; T ½, Range): 10 to 33 h | half-life (clinical; terminal half-life): ~19 h | half-life (clinical; terminal half-life (T1/2)): ~21 h | half-life (clinical; terminal half-life (T1/2), range): 13 to 49 h | dose limiting toxicity (DLT) ([1]; human, in vivo): neutropenia | dose-limiting toxicity (DLT) ([1]; human, in vivo): neutropenia | edema peripheral, no. patients with Grade ≧ 3/no. patients with any Grade ([1]; human, in vivo): 0/4* | grade 4 thrombocytopenia ([1]; human, in vivo): two patients | non-hematologic toxicities ([1]; human, in vivo): mostly grade 1/2 | pain in extremity, no. patients with Grade ≧ 3/no. patients with any Grade ([1]; human, in vivo): 0/5 | SAE possibly related to study drug: Sepsis, CTCAE v3.0 Grade ([1]; q3wk, 1 patient): Grade 3 | MTD ([1]; study A (qwk×3)): 15 mg/m^2 | MTD ([1]; study B (q3wk), heavily pretreated (HP) patients): 48 mg/m^2 | MTD ([1]; study B (q3wk), minimally pretreated (MP) patients): 60 mg/m^2 | decrease in SNS-595 sensitivity (p73 null cells): more than 11 fold | nuclear foci formation (gH2AX, pATM) (HCT116 cells): leads to nuclear foci formation
